Entries after “also recorded” stand apart in the source; their conditions may differ.
Columns and labels:
[1] = system: human pluripotent stem cells; experiment: Accelerated neural induction of hPSCs/hiPSCs into neuroepithelium, 24 hours (NANOG/SOX2/SOX1/PAX6 immunostaining); assay type: cell-based; conditions: for Effect on NE formation of inhibitors of FGF signaling cascade components: standard neuralizing conditions
Procedure: Prior to passaging, a recombinant human vitronectin stock solution (500 ug/mL, Peprotech AF-140-09, Rocky Hill, N.J., USA) was diluted 1:100 in DPBS+/+ (ThermoFisher Scientific cat #14040-133, Waltham, Mass., USA) and used to coat 9.6 cm^2 tissue-culture treated wells (Fischer Scientific, Hampton, N.H.) for one hour at room temperature. hPSCs were washed once with 1 mL hypertonic citrate buffer (11) or equivalent and then incubated with 1 mL hypertonic citrate buffer (11) at 37° C. for 6 minutes until colony detachment occurred. The colonies were collected and processed into 25-50 cell fragments by trituration and the dissociation quenched with 5 mL Essential 6 Medium (ThermoFisher Scientific A1516401, Waltham, Mass., USA). Suspensions were collected into 15 mL conical tubes and centrifuged for 1 minute at 200×G. Supernatants were aspirated and pellets resuspended into 1.2 mL Essential 6 Medium (ThermoFisher Scientific A2858501, Waltham, Mass., USA) assuming a 1:6 split ratio. 0.2 mL cultures were seeded onto rhVTN-coated wells containing Essential 8 Medium. Cultures were maintained in Essential 8 Medium with daily media changes and passaged every 3 days.
(§1) Differentiation medium consisting of Essential 6 supplemented with LDN-193189 HCl (500 nM, Selleckchem cat #S7507, Houston, Tex. USA) and BGJ398 (100 nM Selleckchem cat #S2183 Houston, Tex. USA) was combined and distributed 2 mL per vitronectin-coated well of a 6-well plate. hPSCs were dissociated into small clumps (25-50 cells per clump) as indicated above. 0.2 to 0.4 mL cultures were seeded onto rhVTN-coated wells containing differentiation medium.
Conditions were assayed in which the ERK pathway was inhibited at both receptor and downstream intracellular effector levels. The VEGFR2/FGFR2 inhibitor SU5402 was compounded with previously known neurulation conditions containing the ALK2/3 receptor antagonist LDN 193189 and the ALK 4/5/7 receptor antagonist A8-30-1 to observe their combined effect on undifferentiated pluripotent stem cells.
24-hour differentiating cultures were analyzed prior to cell death for various transcription factors associated with pluripotency and NE formation. […] SOX2, common to both hPSCs and NE, was maintained.

[2] = system: day-1 neuroectoderm; experiment: Caudalization of day-1 neuroectoderm into neuromesoderm; assay type: cell-based, human; conditions: by day 2
Procedure: Controversy currently exists surrounding the origin of the most caudal segments of the central nervous system that include the spinal cord. In vitro conditions for generating spinal cord tissue have traditionally relied upon the formation of anterior neural plate expressing SOX1+/FOXG1+/OTX2+/PAX5−/HOXB4− that is caudalized with factors such as FGF, WNT, and retinoic acid to create SOX1+/FOXG1−/OTX2−/PAX5−/HOXB4+ positive cervical spinal cord tissue. […] An additional 24 hours of WNT/FGF signaling converted this population into SOX1−/SOX2+/T+/TBX6−/HOXB4+ cervical-level neuromesoderm (FIG. 13).

[3] = system: human pluripotent stem cells; experiment: Accelerated production of neuromesoderm progenitors directly from hPSCs, 24 hours (SOX2/T immunophenotype); assay type: cell-based
Procedure: as §1, with “Houston, Tex. USA), BGJ398 (100” for “Houston, Tex. USA) and BGJ398 (100”, “#S2183 Houston, and TX USA), and CHIR 99021 (3 uM, Tocris cat #4423, Bristol UK) was combined” for “#S2183 Houston, Tex. USA) was combined”
The previous scenario utilized a neuroectoderm intermediate for the generation of neuromesoderm. Because it has been shown that neuromesoderm can be derived directly from hPSCs, high levels of WNT signaling were incorporated into the day-1 neuroectoderm conditions to investigate whether this could induce neuromesoderm directly.

[4] = system: day-2 neuromesoderm; experiment: Conversion of day-2 neuromesoderm into spinal neuroepithelium; assay type: cell-based, human; conditions: day 3
Procedure: Day-one Neuromesoderm progenitors were exposed to differentiation medium consisting of Essential 6 supplemented with CHIR 99021 (3 uM, Tocris cat #4423, Bristol UK) and FGF-Basic TS™ (20 ng/mL, Humanzyme cat #HZ-1286, Chicago, Ill. USA) for 24 hours. This day-two neuromesoderm was further exposed to differentiation medium consisting of Essential 6 supplemented with BGJ398 (100 nM Selleckchem cat #52183 Houston, Tex. USA) to create a day-three population of PAX3/SOX1/HOXB4-positive neuroepithelial cells.
It has been shown that retinoic acid signaling is needed to convert neuromesoderm into spinal cord neuroepithelium. […] It has been shown that retinoids exert multiple simultaneous functions in the developing spinal cord, inhibiting FGF signaling, while activating both WNT and SHH signaling. […] This spinal neuroepithelium was further characterized with respect to additional markers and discovered that it was partially PAX3-positive, an early spinal neural plate marker. The day-3 conditions were optimized to maximize PAX3 and it was discovered that moderate WNT signaling was needed in addition to FGF inhibition to derive a pure population of cervical neural plate epithelium homogeneously expression PAX3 (FIG. 18). To investigate the dorso-ventral patterning competency of these retinoid-independent spinal neuroepithelial cells, the day-3 cultures were exposed to SHH signaling. […]

[5] = 24-hour cultures, SU5402 with LDN 193189 and A8-30-1

With `Cc1c[nH]c(C=C2C(=O)Nc3ccccc32)c1CCC(=O)O` [SU5402, 3-[4-Methyl-2-(2-oxo-1,2-dihydro-indol-3-ylidenemethyl)-1H-pyrrol-3-yl]-propionic acid] the “SOX1-positivity (cells)” value ([1]; 24-hour cultures, SU5402 compounded with LDN 193189 and A8-30-1) was “greater than 90%”, the “NANOG positivity compared to undifferentiated control cultures” value [1, 5] was “reduced NANOG positivity” and the SOX2 expression [1, 5] was “maintained”. For the same molecule, the “Outcome of continued culture” value ([1]; additional 48 hours, SU5402 with LDN 193189 and A8-30-1, data not shown) was “resulted in cell death”.
`Cc1c[nH]c(-c2cnc(NCCNc3ccc(C#N)cn3)nc2-c2ccc(Cl)cc2Cl)n1` [CHIR99021] was tested, and the “Population induced from day-1 neuroectoderm by high WNT signaling” value [2] was “sufficient to induce a SOX1−/SOX2+/T+/TBX6−/HOXB4− population by day 2” and the “HOXB4 expression of day-2 cultures” value ([3]; additional 24 hours incubation after day-1 neuromesoderm induction) was “upregulated the HOXB4 transcription factor”.
With `COc1nccc(-c2c(-c3ccc(F)cc3)ncn2C2CCC(O)CC2)n1` (stereo not drawn) [SB239063] the “Effect on NE formation of inhibitors of FGF signaling cascade components” value [1] was “had no effect”.
With `O=C(NOC[C@H](O)CO)c1ccc(F)c(F)c1Nc1ccc(I)cc1F` [PD0325901, N-[(2R)-2,3-Dihydroxypropoxy]-3,4-difluoro-2-[(2-fluoro-4-iodophenyl)amino]-benzamide] the “Effect on NE formation of inhibitors of FGF signaling cascade components” value [1] was “performed similarly to BGJ398; also recorded: substitutes for SU5402”, the “Replacement of BGJ398 in neural induction” value ([1]; with LDN 193189) was “fully replaces use of BGJ398” and the “Replacement of BGJ398 in neuromesoderm formation” value ([3]; with LDN193189 and CHIR99021) was “fully replaces use of BGJ398”.
With `CCN1CCN(c2ccc(Nc3cc(N(C)C(=O)Nc4c(Cl)c(OC)cc(OC)c4Cl)ncn3)cc2)CC1` [BGJ398, 3-(2,6-dichloro-3,5-dimethoxyphenyl)-1-(6-(4-(4-ethylpiperazin-1-yl)-phenylamino)pyrimidin-4-yl)-1-methylurea] the “Induction of SOX1-immunoreactivity when substituted for SU5402 in the inhibitor cocktail” value ([1]; 24 hours, panel of hPSC lines) was “matches or exceeds marker expression levels seen when using SU5402” and the “Population created from day-2 neuromesoderm” value [4] was “created a pure population of spinal neuroepithelium lacking evidence of neuromesoderm or somite tissues”.

Reference: patent US11702629B2, “Acceleration of stem cell differentiation” (Regents of the University of Minnesota, priority 2017, dated 2023)
